Assay results reported in ChEMBL document CHEMBL3112480, “γ-Alkylidene-γ-lactones and isobutylpyrrol-2(5H)-ones analogues to rubrolides as inhibitors of biofilm formation by gram-positive and gram-negative bacteria” (Bioorg Med Chem Lett, 2014).
In brackets after ≈: the same amount, converted by molar mass.

Assays:
[1] = system: Staphylococcus epidermidis; assay: Antibacterial activity against Staphylococcus epidermidis ATCC 35547 assessed as effect on planktonic growth at 0.68 ug/ml after 20 hrs relative to control; assay type: functional
Staphylococcus aureus [2] = assay: Antibacterial activity against Staphylococcus aureus ATCC 25923 assessed as effect on planktonic growth at 0.17 ug/ml after 20 hrs relative to control; assay type: functional
Streptococcus mutans [3] = assay: Antibacterial activity against Streptococcus mutans ATCC 25175 assessed as effect on planktonic growth at 1.37 ug/ml after 20 hrs relative to control; assay type: functional
Streptococcus mutans [4] = assay: Antibacterial activity against Streptococcus mutans ATCC 25175 assessed as effect on planktonic growth at 21.9 ug/ml after 20 hrs relative to control; assay type: functional
[5] = system: Staphylococcus epidermidis; assay: Antibacterial activity against Staphylococcus epidermidis ATCC 35547 assessed as effect on planktonic growth at 21.9 ug/ml after 20 hrs relative to control; assay type: functional
[6] = system: Staphylococcus epidermidis; assay: Antibacterial activity against Staphylococcus epidermidis ATCC 35547 assessed as effect on planktonic growth at 10.9 ug/ml after 20 hrs relative to control; assay type: functional
[7] = system: Staphylococcus epidermidis; assay: Antibacterial activity against Staphylococcus epidermidis ATCC 35547 assessed as inhibition of biofilm formation after 20 hrs by crystal-violet staining method; assay type: functional, organism-based
Pseudomonas aeruginosa [8] = assay: Antibacterial activity against Pseudomonas aeruginosa ATCC 27853 assessed as effect on planktonic growth at 0.68 ug/ml after 20 hrs relative to control; assay type: functional
Staphylococcus aureus [9] = assay: Antibacterial activity against Staphylococcus aureus ATCC 25923 assessed as effect on planktonic growth at 21.9 ug/ml after 20 hrs relative to control; assay type: functional
Streptococcus mutans [10] = assay: Antibacterial activity against Streptococcus mutans ATCC 25175 assessed as effect on planktonic growth at 0.17 ug/ml after 20 hrs relative to control; assay type: functional
Pseudomonas aeruginosa [11] = assay: Antibacterial activity against Pseudomonas aeruginosa ATCC 27853 assessed as effect on planktonic growth at 21.9 ug/ml after 20 hrs relative to control; assay type: functional
Pseudomonas aeruginosa [12] = assay: Antibacterial activity against Pseudomonas aeruginosa ATCC 27853 assessed as effect on planktonic growth at 5.5 ug/ml after 20 hrs relative to control; assay type: functional
Staphylococcus aureus [13] = assay: Antibacterial activity against Staphylococcus aureus ATCC 25923 assessed as effect on planktonic growth at 5.5 ug/ml after 20 hrs relative to control; assay type: functional
Pseudomonas aeruginosa [14] = assay: Antibacterial activity against Pseudomonas aeruginosa ATCC 27853 assessed as effect on planktonic growth at 87.5 ug/ml after 20 hrs relative to control; assay type: functional
Pseudomonas aeruginosa [15] = assay: Antibacterial activity against Pseudomonas aeruginosa ATCC 27853 assessed as effect on planktonic growth at 1.37 ug/ml after 20 hrs relative to control; assay type: functional
Staphylococcus aureus [16] = assay: Antibacterial activity against Staphylococcus aureus ATCC 25923 assessed as effect on planktonic growth at 1.37 ug/ml after 20 hrs relative to control; assay type: functional
Staphylococcus aureus [17] = assay: Antibacterial activity against Staphylococcus aureus ATCC 25923 assessed as effect on planktonic growth at 0.68 ug/ml after 20 hrs relative to control; assay type: functional
Streptococcus mutans [18] = assay: Antibacterial activity against Streptococcus mutans ATCC 25175 assessed as effect on planktonic growth at 43.8 ug/ml after 20 hrs relative to control; assay type: functional
Pseudomonas aeruginosa [19] = assay: Antibacterial activity against Pseudomonas aeruginosa ATCC 27853 assessed as effect on planktonic growth at 0.34 ug/ml after 20 hrs relative to control; assay type: functional
[20] = system: Staphylococcus epidermidis; assay: Antibacterial activity against Staphylococcus epidermidis ATCC 35547 assessed as effect on planktonic growth at 5.5 ug/ml after 20 hrs relative to control; assay type: functional
Staphylococcus aureus [21] = assay: Antibacterial activity against Staphylococcus aureus ATCC 25923 assessed as effect on planktonic growth at 43.8 ug/ml after 20 hrs relative to control; assay type: functional
Streptococcus mutans [22] = assay: Antibacterial activity against Streptococcus mutans ATCC 25175 assessed as effect on planktonic growth at 87.5 ug/ml after 20 hrs relative to control; assay type: functional
Streptococcus mutans [23] = assay: Antibacterial activity against Streptococcus mutans ATCC 25175 assessed as effect on planktonic growth at 10.9 ug/ml after 20 hrs relative to control; assay type: functional
[24] = system: Staphylococcus epidermidis; assay: Antibacterial activity against Staphylococcus epidermidis ATCC 35547 assessed as effect on planktonic growth at 43.8 ug/ml after 20 hrs relative to control; assay type: functional
[25] = system: Staphylococcus epidermidis; assay: Antibacterial activity against Staphylococcus epidermidis ATCC 35547 assessed as effect on planktonic growth at 0.17 ug/ml after 20 hrs relative to control; assay type: functional
Pseudomonas aeruginosa [26] = assay: Antibacterial activity against Pseudomonas aeruginosa ATCC 27853 assessed as effect on planktonic growth at 2.73 ug/ml after 20 hrs relative to control; assay type: functional
Pseudomonas aeruginosa [27] = assay: Antibacterial activity against Pseudomonas aeruginosa ATCC 27853 assessed as inhibition of biofilm formation after 20 hrs by crystal-violet staining method; assay type: functional, organism-based; conditions: for IC50: ATCC 27853, 20 h
Streptococcus mutans [28] = assay: Antibacterial activity against Streptococcus mutans ATCC 25175 assessed as effect on planktonic growth at 5.5 ug/ml after 20 hrs relative to control; assay type: functional
Pseudomonas aeruginosa [29] = assay: Antibacterial activity against Pseudomonas aeruginosa ATCC 27853 assessed as effect on planktonic growth at 43.8 ug/ml after 20 hrs relative to control; assay type: functional
[30] = system: Staphylococcus epidermidis; assay: Antibacterial activity against Staphylococcus epidermidis ATCC 35547 assessed as effect on planktonic growth at 2.73 ug/ml after 20 hrs relative to control; assay type: functional
Streptococcus mutans [31] = assay: Antibacterial activity against Streptococcus mutans ATCC 25175 assessed as effect on planktonic growth at 0.34 ug/ml after 20 hrs relative to control; assay type: functional
Staphylococcus aureus [32] = assay: Antibacterial activity against Staphylococcus aureus ATCC 25923 assessed as effect on planktonic growth at 0.34 ug/ml after 20 hrs relative to control; assay type: functional
Pseudomonas aeruginosa [33] = assay: Antibacterial activity against Pseudomonas aeruginosa ATCC 27853 assessed as effect on planktonic growth at 10.9 ug/ml after 20 hrs relative to control; assay type: functional
[34] = system: Staphylococcus epidermidis; assay: Antibacterial activity against Staphylococcus epidermidis ATCC 35547 assessed as effect on planktonic growth at 1.37 ug/ml after 20 hrs relative to control; assay type: functional
Staphylococcus aureus [35] = assay: Antibacterial activity against Staphylococcus aureus ATCC 25923 assessed as effect on planktonic growth at 87.5 ug/ml after 20 hrs relative to control; assay type: functional
[36] = system: Staphylococcus epidermidis; assay: Antibacterial activity against Staphylococcus epidermidis ATCC 35547 assessed as effect on planktonic growth at 87.5 ug/ml after 20 hrs relative to control; assay type: functional
[37] = system: Staphylococcus epidermidis; assay: Antibacterial activity against Staphylococcus epidermidis ATCC 35547 assessed as effect on planktonic growth at 0.34 ug/ml after 20 hrs relative to control; assay type: functional
[38] = system: Staphylococcus epidermidis; assay: Induction of biofilm formation in Staphylococcus epidermidis ATCC 35547 at 87.5 ug/ml after 20 hrs by crystal-violet staining method relative to control; assay type: organism-based
Streptococcus mutans [39] = assay: Antibacterial activity against Streptococcus mutans ATCC 25175 assessed as effect on planktonic growth at 2.73 ug/ml after 20 hrs relative to control; assay type: functional
Streptococcus mutans [40] = assay: Antibacterial activity against Streptococcus mutans ATCC 25175 assessed as effect on planktonic growth at 0.68 ug/ml after 20 hrs relative to control; assay type: functional
Staphylococcus aureus [41] = assay: Antibacterial activity against Staphylococcus aureus ATCC 25923 assessed as effect on planktonic growth at 2.73 ug/ml after 20 hrs relative to control; assay type: functional
Pseudomonas aeruginosa [42] = assay: Antibacterial activity against Pseudomonas aeruginosa ATCC 27853 assessed as effect on planktonic growth at 0.17 ug/ml after 20 hrs relative to control; assay type: functional
Staphylococcus aureus [43] = assay: Antibacterial activity against Staphylococcus aureus ATCC 25923 assessed as effect on planktonic growth at 10.9 ug/ml after 20 hrs relative to control; assay type: functional

COc1ccccc1C1=C(Br)C(=O)N(CC(C)C)C1(O)Cc1ccc(C(F)(F)F)cc1 (stereo not drawn)
Activity [1]: 1.4% | Activity (Staphylococcus aureus [2]): -4.8% | Activity (Streptococcus mutans [3]): 12.4% | Activity (Streptococcus mutans [4]): -26.9% | Activity [5]: 13.8% | Activity [6]: 16.4% | inhibition [7]: Dose-dependent effect | Activity (Pseudomonas aeruginosa [8]): -6.5% | Activity (Staphylococcus aureus [9]): -17% | Activity (Streptococcus mutans [10]): 0.7% | Activity (Pseudomonas aeruginosa [11]): -12.2% | Activity (Pseudomonas aeruginosa [12]): -17.2% | Activity (Staphylococcus aureus [13]): -4.1% | Activity (Pseudomonas aeruginosa [14]): -10.8% | Activity (Pseudomonas aeruginosa [15]): -19.3% | Activity (Staphylococcus aureus [16]): 2.5% | Activity (Staphylococcus aureus [17]): -5.6% | Activity (Streptococcus mutans [18]): -29.9% | Activity (Pseudomonas aeruginosa [19]): 3.7% | Activity [20]: 10.7% | Activity (Staphylococcus aureus [21]): -17% | Activity (Streptococcus mutans [22]): -36.3% | Activity (Streptococcus mutans [23]): -23.9% | Activity [24]: 16.3% | Activity [25]: 6.3% | Activity (Pseudomonas aeruginosa [26]): -18.4% | inhibition (Pseudomonas aeruginosa [27]): Dose-dependent effect | IC50 (Pseudomonas aeruginosa [27]): > 87.5 µg/mL | Activity (Streptococcus mutans [28]): -18.7% | Activity (Pseudomonas aeruginosa [29]): -7.8% | Activity [30]: 3.5% | Activity (Streptococcus mutans [31]): 6.2% | Activity (Staphylococcus aureus [32]): -2.8% | Activity (Pseudomonas aeruginosa [33]): -16.2% | Activity [34]: 0.1% | Activity (Staphylococcus aureus [35]): -15.4% | Activity [36]: 0.5% | Activity [37]: 1.9% | Activity [38]: 143.6% | Activity (Streptococcus mutans [39]): 1.7% | Activity (Streptococcus mutans [40]): 10.9% | Activity (Staphylococcus aureus [41]): 0.5% | Activity (Pseudomonas aeruginosa [42]): 4.7% | Activity (Staphylococcus aureus [43]): -5.8%

COc1cccc(CC2(O)C(c3cc(Cl)ccc3OC)=C(Br)C(=O)N2CC(C)C)c1 (stereo not drawn)
Activity [1]: 5.1% | Activity (Staphylococcus aureus [2]): 2% | Activity (Streptococcus mutans [3]): -8.7% | Activity (Streptococcus mutans [4]): -0.6% | Activity [5]: 6.9% | Activity [6]: -0.3% | inhibition [7]: Dose-dependent effect | Activity (Pseudomonas aeruginosa [8]): -6.7% | Activity (Staphylococcus aureus [9]): -15.1% | Activity (Streptococcus mutans [10]): -14% | Activity (Pseudomonas aeruginosa [11]): -3.7% | Activity (Pseudomonas aeruginosa [12]): -5.5% | Activity (Staphylococcus aureus [13]): -8.1% | Activity (Pseudomonas aeruginosa [14]): -3.6% | Activity (Pseudomonas aeruginosa [15]): -4.2% | Activity (Staphylococcus aureus [16]): 6.8% | Activity (Staphylococcus aureus [17]): -5% | Activity (Streptococcus mutans [18]): 6.5% | Activity (Pseudomonas aeruginosa [19]): -5.8% | Activity [20]: 6.4% | Activity (Staphylococcus aureus [21]): 0.7% | Activity (Streptococcus mutans [22]): 9% | Activity (Streptococcus mutans [23]): -3.7% | Activity [24]: 15.7% | Activity [25]: 10% | Activity (Pseudomonas aeruginosa [26]): -18.9% | inhibition (Pseudomonas aeruginosa [27]): Dose-dependent effect | IC50 (Pseudomonas aeruginosa [27]): 2.2 µg/mL (≈ 4.45 µM) | Activity (Streptococcus mutans [28]): 1.6% | Activity (Pseudomonas aeruginosa [29]): -2.3% | Activity [30]: 3.4% | Activity (Streptococcus mutans [31]): -12.5% | Activity (Staphylococcus aureus [32]): 0.7% | Activity (Pseudomonas aeruginosa [33]): -3.3% | Activity [34]: 4.7% | Activity (Staphylococcus aureus [35]): 22.1% | Activity [36]: 14.5% | Activity [37]: 3.3% | Activity [38]: 46.9% | Activity (Streptococcus mutans [39]): 0.3% | Activity (Streptococcus mutans [40]): -12.5% | Activity (Staphylococcus aureus [41]): 2.3% | Activity (Pseudomonas aeruginosa [42]): -4% | Activity (Staphylococcus aureus [43]): -9.9%
